In patent publication US20070275923A1, “CATIONIC PEPTIDES FOR siRNA [sequence] [sequence]” (NASTECH PHARMACEUTICAL COMPANY INC., priority 2006, published 2007):
Residues, ends and D or L forms follow the SMILES beside them. *: point of attachment. Propanoyl(3-maleimido) = O=C1C=CC(=O)N1CCC(=O)*

How the values were obtained:
[1] = in vitro; conditions: C57BL/6J, mouse, mouse tail fibroblast (MTF) cells
Protocol: Mouse tail fibroblast (MTF) cells were derived from the tails of C57BL/6J mice. Tails were removed, immersed in 70% ethanol and then cut into small sections with a razor blade. The sections were washed three times with PBS and then incubated in a shaker at 37° C. with 0.5 mg/mL collagenase, 100 units/mL penicillin and 100 μg/mL streptomycin to disrupt tissue. Tail sections were then cultured in complete media (Dulbecco's Modified […] Medium with 20% FBS, 1 mM sodium pyruvate, nonessential amino acids and 100 units/mL penicillin and 100 μg/mL streptomycin) until cells were established. Cells were cultured at 37° C., 5% CO2 in complete media as outlined above.
Cells were be plated per well in a microtiter plate the day before transfection in complete media. The siRNA was be labeled, for example with a FAM, Alexa488, Alexa647 or Cy-5 conjugate. The cationic polymer peptide and siRNA were mixed in the microtiter plate complex with cells previously with OptiMEM. 7-AAD was added to each transfection to measure cell viability. Cells were transfected for three hours at 37° C., 5% CO2. The transfection mixture was removed and the cells were washed with TE buffer for about 10 minutes at 37° C., 5% CO2. Transfected cells were transferred to a V bottom plate and centrifuged. The TE buffer was removed and the transfected cells were resuspended in fluorescence activated cell sorting (FACS) buffer.
A non-transfection, siRNA alone, control was also performed. The peptide PN183 served herein as a positive cell-uptake control.
Cell-uptake is expressed as a percentage of the total cells with intracellular labeled siRNA. Cell Viability is also expressed as a percentage where 100% represents 100% viability. The MFI value is a relative value with a higher MFI value indicating a greater amount of labeled siRNA entered the cell. Within Table 3, “ND” means no data.

[2] = tested on: Mouse tail fibroblast (MTF) cells; experiment: siRNA cell-uptake and MFI measured by FACS after peptide-mediated transfection of labeled siRNA; format: cell-based; conditions: for % Cell-Uptake / MFI: 200 nM labeled siRNA; for % Cell-Uptake: % of total cells with intracellular labeled siRNA; for MFI: relative value, higher = more labeled siRNA entered the cell
Protocol: SiRNA cell uptake was measured by FACS.
For the instant example, cell-uptake, mean fluorescent intensity (MFI) and cell viability was measured for each peptide. siRNA cell-uptake was measured by the presence of intracellular labeled siRNA. The cell-uptake assay determined the percentage of cells that contain the labeled siRNA. Mean Fluorescence Intensity (MFI) was used to determine the relative mean quantity of labeled siRNA that entered the cells.
A non-transfection, siRNA alone, control was also performed.
Within Table 3, “ND” means no data.

Molecule	viability at 3 h, 1 µM [1]	viability at 3 h, 10 µM [1]	viability at 3 h, 100 µM [1]	% Cell-Uptake ([2]; peptide concentration 1 μM)	MFI ([2]; peptide concentration 1 μM)	% Cell-Uptake ([2]; peptide concentration 10 μM)	MFI ([2]; peptide concentration 10 μM)	% Cell-Uptake ([2]; peptide concentration 100 μM)	MFI ([2]; peptide concentration 100 μM)	intracellular delivery of siRNA (verbal conclusion from cell-uptake and cell viability) ([2]; conclusion drawn from Table 3)
CC[C@H](C)[C@H](NC(=O)[C@H](C)NC(=O)CNC(=O)[C@H](Cc1ccccc1)NC(=O)[C@@H](NC(=O)[C@H](CCC(=O)O)NC(=O)[C@H](CC(N)=O)NC(=O)CNC(=O)[C@H](Cc1c[nH]c2ccccc12)NC(=O)[C@H](CCC(=O)O)NC(=O)CNC(=O)[C@H](CCSC)NC(=O)[C@@H](NC(=O)[C@H](CC(=O)O)NC(=O)[C@@H]1CCCN1C(=O)[C@H](CCC(N)=O)NC(=O)[C@H](CO)NC(=O)[C@H](CCCCN)NC(=O)[C@H](CCCCN)NC(=O)[C@H](CCCCN)NC(=O)[C@H](CCCCN)NC(=O)[C@H](CCCCN)NC(=O)[C@H](CCCCN)NC(=O)[C@H](CCCCN)NC(=O)[C@H](CCCCN)NC(=O)CCN1C(=O)C=CC1=O)[C@@H](C)CC)[C@@H](C)CC)C(=O)N[C@@H](C)C(=O)NCC(=O)N[C@@H](Cc1ccccc1)C(=O)N[C@@H](CC(C)C)C(=O)NCC(N)=O [PN947] ({Propanoyl(3-maleimido)}-KKKKKKKKSQPDIMGEWGNEIFGAIAGFLG-NH2; N-terminus assumed)	98.7%	97.9%	99.3%	2.8%	1.23	12.3%	1.44	49.5%	4.6	
CC[C@H](C)[C@H](NC(=O)[C@H](CCCCN)NC(=O)[C@@H](NC(=O)[C@H](CCC(N)=O)NC(=O)[C@H](CCCNC(=N)N)NC(=O)[C@H](CS)NC(=O)[C@@H](NC(=O)[C@H](CO)NC(=O)[C@H](CCCNC(=N)N)NC(=O)[C@H](Cc1c[nH]cn1)NC(=O)[C@H](Cc1c[nH]cn1)NC(=O)[C@H](Cc1c[nH]cn1)NC(=O)[C@H](Cc1c[nH]cn1)NC(=O)[C@H](Cc1c[nH]cn1)NC(=O)[C@@H](N)Cc1c[nH]cn1)C(C)C)[C@@H](C)CC)C(=O)N[C@@H](CS)C(=O)N[C@@H](CCCNC(=N)N)C(=O)N[C@@H](CCCNC(=N)N)C(=O)N[C@@H](CCCNC(=N)N)C(=O)NCC(=O)NCC(=O)N[C@@H](CS)C(=O)N[C@@H](Cc1ccc(O)cc1)C(=O)N[C@@H](Cc1ccc(O)cc1)C(=O)N[C@@H](CCCCN)C(=O)N[C@@H](CS)C(=O)N[C@H](C(=O)N[C@@H](CC(N)=O)C(=O)N[C@@H](CCCNC(=N)N)C(=O)N1CCC[C@H]1C(=O)N[C@@H](Cc1ccc(O)cc1)C(N)=O)[C@@H](C)O [PN951] (H-HHHHHHRSVCRQIKICRRRGGCYYKCTNRPY-NH2)	97.2%	99.1%	97.9%	31.8%	4.02	80.1%	14.3	45.7%	9.19	
H-KKKKKKKKKK-NH2 [PN932, NH2-(Lys)10-amide]	97.3%	96.7%	98.4%	0.4%		1%		1%		
H-KHKHKHKHKHKHKHKHKHKH-NH2 [PN938, NH2-(Lys-His)10-amide]	97.9%	98.6%	98.8%	0.6%		0.5%		5.9%		
H-KHKHKHKHKHKHKHKHKHKHKHKHKHKHKH-NH2 [PN935, NH2-(Lys-His)15-amide]	98.1%	97.3%	96.6%	20.3%	1.94	36.1%	2.2	24.6%	2.16	effective intracellular delivery of siRNA without negatively impacting cell viability
